Measurements reported in patent publication US8809344B2, “Compounds, compositions, and methods for control of hepatitis C viral infections” (priority 2008, dated 2014).

Legend:
Huh7.5 cells = test: ATP viability assay (CellTiter-Glo) in replicon-harboring Huh7.5 cells; assay type: cell-based, human; conditions: 24 hours post-treatment; Huh7.5 cells harboring transient genotype 1b replicon
Protocol: Inhibition of HCV replication by AP0089652, AP0080978 (enantiomer 2 from Example 1) and AP0080977 (enantiomer 1 from Example 1) were assayed by exposing cells harboring an HCV genotype 1b replicons to the compounds and quantitating HCV replicon levels following exposure. The replicon used in these studies was a transient genotype 1b subgenomic replicon generated from the Con1 strain. In this replicon, the HCV internal ribosome entry site (IRES) within the 5′ non-translated region (NTR) drives expression of the first 32 amino acids of the core protein fused to humanized Renilla luciferase (hRluc). The encephalomycarditis IRES lies 3′ to the hRluc open reading frame (ORF) and drives expression of non-structural (NS) proteins NS3 through NS5B. Huh7.5 cells (U.S. patent application Ser. No. 10/534,571) harboring this replicon were seeded into 96-well plates at 20,000 cells per well in medium containing 10% FBS, 1× penicillin/streptomycin, 1× non-essential amino acids, and 100 ng/ml Fungizone. After a four hour attachment period, compound was added to wells using a five point 3-fold serial dilution series with four replicate treatments per dose. […] Compound-mediated HCV inhibition and toxicity were assayed 24 hours post-treatment using Renilla luciferase readout and an ATP viability assay (CellTiter-Glo, Promega, Madison, Wis., USA), respectively. […]

[1] = test system: chimeric APV112 HCV (genotype 2a with genotype 1b NS4B amino acids 53 to 218); test: HCV APV112 viral infectivity assay in Huh7.5 cells, 3′NTR RNA by realtime quantitative PCR; assay type: cell-based, hepatitis C virus; conditions: for Log change in 3′NTR copies relative to 1.0% DMSO (GAPDH normalized): APV112, 48 hours
Protocol: (§1) Inhibition of HCV infectivity by AP0080978 and its analogs (AP0080977, non-active enantiomer; AP0089652, racemate; and AP0080935, an aromatic, non-optically active analog of AP0080978) was assayed by exposing cells with infectious chimeric HCV virions in the presence of the compounds. This was accomplished by use of an HCV cell culture system essentially as described in Pietschmann, T. et al. (2006) 103(19): 7408-13, Proc. Natl. Acad. Sci. USA; and elsewhere. Two viral constructs were utilized to characterize inhibition of viral infectivity (FIG. 4). Construct APV23 (FL-J6/JFH) is a full-length, chimeric, genotype 2a HCV genome containing the HCV core through the NS2 first transmembrane domain coding region from the J6 HCV isolate linked to the second NS2 transmembrane domain NS3 through NS5B coding region of HCV strain JFH-1, as shown in FIG. 4 (i.e. an HCV chimera with the “C3 Junction” described in Pietschmann, T. et al. (2006) Proc. Natl. Acad. Sci. USA 103(19): 7408-13; see page 7409 and FIG. 2A of Pietschmann, T. et al.). Construct APV112 was generated by replacing nucleotides encoding amino acids 53 to 218 of the NS4B gene of the APV23 sequence with a corresponding sequence from a genotype 1b (Con1 strain).
(§2) Huh7.5 cells were plated at a density of 20,000 cells per well in 96-well plates. The cells were exposed to the chimeric HCV virions at a multiplicity of infection of 0.01. Potential inhibitory compounds were added simultaneously with the chimeric virus. Cells were incubated for 48 hours and then the levels of HCV 3′NTR and GAPDH RNA were quantified by realtime quantitative PCR. Data were analyzed by the comparative Ct method with delta-delta Ct determined relative to 1.0% DMSO. Results in FIGS. 5 and 6 are depicted as log change in 3′NTR copies relative to 1.0% DMSO.

[2] = test system: chimeric APV23 (FL-J6/JFH) genotype 2a HCV; test: HCV APV23 viral infectivity assay in Huh7.5 cells, 3′NTR RNA by realtime quantitative PCR; assay type: cell-based, hepatitis C virus; conditions: FIG. 6; genotype 2a NS4B coding region
Protocol: as §1, §2

In the case of `O=C(NCc1cccs1)c1nn2c(c1Cl)NC(c1ccco1)CC2C(F)(F)F` (stereo not drawn) [Compound 89652, 3-chloro-5-(furan-2-yl)-N-(thiophen-2-ylmethyl)-7-(trifluoromethyl)-4,5,6,7-tetrahydropyrazolo[L5-a]pyrimidine-2-carboxamide], the CC50 (Huh7.5 cells) is reported as greater than 100 µM, the “potency in viral infectivity assays relative to HCV replicon assays” value [1] is reported as “significantly more potent” and the “Log change in 3′NTR copies relative to 1.0% DMSO (GAPDH normalized)” value ([1]; 0.02 μM) is reported as −0.15. The “Log change in 3′NTR copies relative to 1.0% DMSO (GAPDH normalized)” value ([1]; 0.07 μM) was −0.52, the “Log change in 3′NTR copies relative to 1.0% DMSO (GAPDH normalized)” value ([1]; 0.22 μM) was −0.85 and the “Log change in 3′NTR copies relative to 1.0% DMSO (GAPDH normalized)” value ([1]; 0.67 μM) was −1.31. For the same compound, the “Log change in 3′NTR copies relative to 1.0% DMSO (GAPDH normalized)” value ([1]; 2 μM) was −1.47, the “chimeric APV112 viral infectivity” value ([1]; FIG. 5, sensitive genotype 1b NS4B region) was “reduced” and the “chimeric APV23 viral infectivity” value [2] was “unaffected”.
